EP0326331B1, “Substituted quinolines and cinnolines” (Dow AgroSciences LLC, priority 1988, dated 1989)

Tests used:
Type in all cases: in vivo
[1] = tested on: Botrytis cinerea (gray mold); test: Test 1 greenhouse foliar spray screen, gray mold on grape berries; conditions: disease control rating, spray on grape berries, 400 ppm (+++ at 100 ppm)
[2] = tested on: Pyricularia oryzae (rice blast); test: whole plant or invertebrate; conditions: disease control rating, foliar spray on rice, 400 ppm (+++ at 100 ppm)
[3] = tested on: Erysiphe graminis tritici (powdery mildew); test: Test 1 greenhouse foliar spray screen, powdery mildew on wheat; conditions: disease control rating, foliar spray on wheat, 400 ppm (+++ at 100 ppm)
[4] = tested on: Cercospora beticola (leaf spot); test: Test 1 greenhouse foliar spray screen, leaf spot on sugar beet; conditions: disease control rating, foliar spray on sugar beet, 400 ppm (+++ at 100 ppm)
[5] = tested on: Puccinia recondita tritici (leaf rust); test: Test 1 greenhouse foliar spray screen, leaf rust on wheat; conditions: disease control rating, foliar spray on wheat, 400 ppm (+++ at 100 ppm)
[6] = tested on: Septoria tritici (leaf blotch); test: Test 1 greenhouse foliar spray screen, leaf blotch on wheat; conditions: disease control rating, foliar spray on wheat, 400 ppm (+++ at 100 ppm)
[7] = tested on: Pseudoperonospora cubensis (downy mildew); test: Test 1 greenhouse foliar spray screen, downy mildew on squash; conditions: disease control rating, foliar spray on squash, 400 ppm (+++ at 100 ppm)
[8] = tested on: melon aphids (Aphis gossypii Glover); test: Mite/insect screen, MA; conditions: percent mortality, SAW; for mortality at 200 ppm / mortality at 400 ppm: Aphis gossypii, read-out: MA RESULTS %; for mortality at 400 ppm: SM & MA RATE 400 PPM
Procedure, shortened: (§1)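 Formulation: acetone/alcohol 50:50 + sulfonate/nonionic emulsifiers, water-diluted to indicated concs. Spray both leaf surfaces to runoff, 10 psi; dry 1 h. Armyworm: 2 excised uninfested leaves in Petri dish. Score % mortality after standard exposure.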

[9] = tested on: Venturia inaequalis (apple scab); test: Test 1 greenhouse foliar spray screen, apple scab on apple seedling; conditions: disease control rating, foliar spray on apple seedling, 400 ppm (+++ at 100 ppm)
[10] = tested on: Twospotted spider mites (Tetranychus urticae Koch); test: Mite/insect screen, SM; conditions: percent mortality, SAW; for mortality at 200 ppm / mortality at 400 ppm: Tetranychus urticae, read-out: SM RESULTS %; for mortality at 400 ppm: SM & MA RATE 400 PPM
Procedure, shortened: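 Compounds dissolved in 50:50 acetone/alcohol containing sulfonate/nonionic emulsifier blends, then diluted with water to the indicated concentrations. Leaves sprayed on both surfaces to runoff at 10 psi and dried one hour. Percent mortality scored after standard exposure periods.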

[11] = tested on: corn rootworm; test: Mite/insect screen, CRW; conditions: percent mortality; for mortality at 12 ppm / mortality at 24 ppm: read-out: CRW RESULTS %; for mortality at 24 ppm: CRW RATE 24.00 PPM
Procedure, shortened: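 Percent mortality is evaluated once the standard exposure period ends. Test material is applied as a water dilution of an acetone/alcohol (50:50) stock carrying two sulfonate/nonionic emulsifiers (23 and 13 g per liter).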

[12] = tested on: southern armyworm (Spodopetra eridania Cramer); test: Mite/insect screen, SAW; conditions: percent mortality, SAW; for mortality at 200 ppm / mortality at 400 ppm: Spodoptera eridania, read-out: SAW RESULTS %; for mortality at 400 ppm: SM & MA RATE 400 PPM
Procedure, shortened: as §1

O=[N+]([O-])c1ccc(CCNc2ccnc3c(F)cccc23)cc1 [Example 117, 8-fluoro-N-[2-(4-nitrophenyl)ethyl]-4-quinolinamine]
+++ (90-100% control at 100 ppm): DOWN MDEW [7]
0%: mortality at 200 ppm ([8]; SM & MA RATE 200 PPM) | MA RESULTS % ([8]; SM & MA RATE 200 PPM) | mortality at 200 ppm ([10]; SM & MA RATE 200 PPM) | SM RESULTS % ([10]; SM & MA RATE 200 PPM) | CRW RESULTS % ([11]; CRW RATE 12.00 PPM) | mortality at 12 ppm ([11]; CRW RATE 12.00 PPM) | mortality at 200 ppm ([12]; SM & MA RATE 200 PPM) | SAW RESULTS % ([12]; SM & MA RATE 200 PPM)
- (0-19% control at 400 ppm): GRAY MOLD [1] | LEAF BLOT [6] | APPL SCAB [9]
+ (20-89% control at 400 ppm): RICE BLAST [2] | POWD MDEW [3] | LEAF SPOT [4] | LEAF RUST [5]

Fc1cccc2c(NCCc3c(Cl)cccc3Cl)ccnc12 [Example 118, N-[2-(2,6-dichlorophenyl)ethyl]-8-fluoro-4-quinolinamine]
+ (20-89% control at 400 ppm): RICE BLAST [2]
- (0-19% control at 400 ppm): GRAY MOLD [1] | POWD MDEW [3] | LEAF SPOT [4] | LEAF RUST [5] | LEAF BLOT [6] | DOWN MDEW [7] | APPL SCAB [9]
0%: mortality at 200 ppm ([8]; SM & MA RATE 200 PPM) | mortality at 200 ppm ([10]; SM & MA RATE 200 PPM) | mortality at 12 ppm ([11]; CRW RATE 12.00 PPM) | mortality at 200 ppm ([12]; SM & MA RATE 200 PPM)

COc1cc(CCNc2ccnc3c(F)cccc23)cc(OC)c1 [Example 119, N-[2-(3,5-dimethoxyphenyl)ethyl]-8-fluoro-4-quinolinamine]
++ (90-100% control at 400 ppm): DOWN MDEW [7]
- (0-19% control at 400 ppm): GRAY MOLD [1] | LEAF SPOT [4]
+ (20-89% control at 400 ppm): RICE BLAST [2] | POWD MDEW [3] | LEAF RUST [5] | LEAF BLOT [6] | APPL SCAB [9]
0%: mortality at 200 ppm ([8]; SM & MA RATE 200 PPM) | mortality at 200 ppm ([10]; SM & MA RATE 200 PPM) | mortality at 12 ppm ([11]; CRW RATE 12.00 PPM) | mortality at 200 ppm ([12]; SM & MA RATE 200 PPM)

c1ccc(C2CC2Nc2ccnc3ccccc23)cc1 (centres unmarked) [Example 120, N-(2-phenylcyclopropyl)-4-quinolinamine]
+++ (90-100% control at 100 ppm): LEAF SPOT [4]
0%: mortality at 200 ppm ([8]; SM & MA RATE 200 PPM) | mortality at 200 ppm ([10]; SM & MA RATE 200 PPM) | mortality at 12 ppm ([11]; CRW RATE 12.00 PPM) | mortality at 200 ppm ([12]; SM & MA RATE 200 PPM)
+ (20-89% control at 400 ppm): RICE BLAST [2] | LEAF RUST [5]
- (0-19% control at 400 ppm): GRAY MOLD [1] | POWD MDEW [3] | LEAF BLOT [6] | APPL SCAB [9]
++ (90-100% control at 400 ppm): DOWN MDEW [7]

CC(=O)N(CCc1ccc(C)cc1)c1ccnc2ccc(C)cc12 [Example 122, N-[2-(4-methylphenyl)ethyl]-N-(6-methyl-4-quinolinyl)acetamide]
0%: mortality at 200 ppm ([8]; SM & MA RATE 200 PPM) | mortality at 400 ppm [8] | mortality at 200 ppm ([10]; SM & MA RATE 200 PPM) | mortality at 400 ppm [10] | mortality at 12 ppm ([11]; CRW RATE 12.00 PPM) | mortality at 24 ppm [11] | mortality at 200 ppm ([12]; SM & MA RATE 200 PPM) | mortality at 400 ppm [12]
- (0-19% control at 400 ppm): GRAY MOLD [1] | POWD MDEW [3] | LEAF SPOT [4] | LEAF BLOT [6] | APPL SCAB [9]
++ (90-100% control at 400 ppm): RICE BLAST [2] | DOWN MDEW [7]
+ (20-89% control at 400 ppm): LEAF RUST [5]

Fc1cccc2c(NC3CC3c3ccccc3)ccnc12 (centres unmarked) [Example 123, 8-fluoro-N-(2-phenylcyclopropyl)-4-quinolinamine]
+++ (90-100% control at 100 ppm): DOWN MDEW [7]
0%: mortality at 200 ppm ([8]; SM & MA RATE 200 PPM) | mortality at 200 ppm ([10]; SM & MA RATE 200 PPM) | mortality at 12 ppm ([11]; CRW RATE 12.00 PPM) | mortality at 200 ppm ([12]; SM & MA RATE 200 PPM)
+ (20-89% control at 400 ppm): RICE BLAST [2] | LEAF RUST [5]
- (0-19% control at 400 ppm): GRAY MOLD [1] | POWD MDEW [3] | LEAF SPOT [4] | LEAF BLOT [6] | APPL SCAB [9]

CC(=O)N(CCc1ccc(Cl)cc1)c1ccnc2cc(Cl)ccc12 [Example 124, N-[2-(4-chlorophenyl)ethyl]-N-(7-chloro-4-quinolinyl)acetamide]
0%: mortality at 200 ppm ([8]; SM & MA RATE 200 PPM) | mortality at 400 ppm [8] | mortality at 200 ppm ([10]; SM & MA RATE 200 PPM) | mortality at 400 ppm [10] | mortality at 12 ppm ([11]; CRW RATE 12.00 PPM) | mortality at 24 ppm [11] | mortality at 200 ppm ([12]; SM & MA RATE 200 PPM) | mortality at 400 ppm [12]
- (0-19% control at 400 ppm): GRAY MOLD [1] | LEAF SPOT [4] | LEAF BLOT [6] | DOWN MDEW [7] | APPL SCAB [9]
+ (20-89% control at 400 ppm): RICE BLAST [2] | LEAF RUST [5]
+++ (90-100% control at 100 ppm): POWD MDEW [3]

CC(=O)N(CCc1cccc(C(F)(F)F)c1)c1ccnc2cc(Cl)ccc12 [Example 126, N-(7-chloro-4-quinolinyl)-N-[2-[3-(trifluoromethyl)phenyl]ethyl]acetamide]
- (0-19% control at 400 ppm): GRAY MOLD [1] | LEAF SPOT [4] | APPL SCAB [9]
+++ (90-100% control at 100 ppm): RICE BLAST [2]
0%: mortality at 200 ppm ([8]; SM & MA RATE 200 PPM) | mortality at 400 ppm [8] | mortality at 200 ppm ([10]; SM & MA RATE 200 PPM) | mortality at 400 ppm [10] | mortality at 12 ppm ([11]; CRW RATE 12.00 PPM) | mortality at 24 ppm [11] | mortality at 200 ppm ([12]; SM & MA RATE 200 PPM) | mortality at 400 ppm [12]
++ (90-100% control at 400 ppm): POWD MDEW [3]
+ (20-89% control at 400 ppm): LEAF RUST [5] | LEAF BLOT [6] | DOWN MDEW [7]

CC(=O)N(CCc1ccc(C(C)C)cc1)c1ccnc2c(F)cccc12 [Example 129, N-[2-[4-(i-propyl)phenyl]ethyl]-N-(8-fluoro-4-quinolinyl)acetamide]
- (0-19% control at 400 ppm): GRAY MOLD [1] | POWD MDEW [3] | LEAF SPOT [4] | LEAF BLOT [6]
+ (20-89% control at 400 ppm): RICE BLAST [2] | DOWN MDEW [7] | APPL SCAB [9]
++ (90-100% control at 400 ppm): LEAF RUST [5]
0%: mortality at 200 ppm ([8]; SM & MA RATE 200 PPM) | mortality at 400 ppm [8] | mortality at 200 ppm ([10]; SM & MA RATE 200 PPM) | mortality at 400 ppm [10] | mortality at 12 ppm ([11]; CRW RATE 12.00 PPM) | mortality at 24 ppm [11] | mortality at 200 ppm ([12]; SM & MA RATE 200 PPM) | mortality at 400 ppm [12]
